Experimental data: PubChem BioAssay AID2009 (NMMLSC, 2009)
The source made the active and inactive calls.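 The calls were made as follows: active = EC50 of 30 microM or lower and a span of response of at least a set limit; inactive = the rest.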

Biological target: Cdc42 activated mutant (human), GST fusion
Assay: constitutively active Cdc42 fluorescent GTP binding inhibition – biochemical, oxadiazole analogs, multiplex bead flow cytometry, Ki, SAR follow-up (AID 2009)
Details: Bead-based flow cytometry, Bodipy-FL-GTP binding; for Ki: measured here: Ki calculated from EC50

Row | EC50 | Ki | SMILES
1 | 3680 nM | 570 nM | COc1cccc(-c2noc(CCC(=O)N3CCN(c4cc(C)ccc4C)CC3)n2)c1
2 | 2030 nM | 310 nM | COc1ccc(-c2noc(CCC(=O)N3CCN(c4ccccc4Cl)CC3)n2)cc1
3 | > 30000 nM (inactive) | – | COc1ccc(-c2cc(CCC(=O)N3CCN(c4cc(C)ccc4C)CC3)[nH]n2)cc1
4 | 2340 nM | 360 nM | COc1ccc(-c2noc(CCC(=O)N3CCN(c4cccc(C)c4)CC3)n2)cc1
5 | 2940 nM | 460 nM | COc1ccc(-c2ccc(CCC(=O)N3CCN(c4cc(C)ccc4C)CC3)s2)cc1
6 | 3080 nM | 480 nM | COc1ccc(-c2noc(CCC(=O)N3CCN(c4ccccc4OC)CC3)n2)cc1
7 | > 30000 nM (inactive) | – | COc1ccc(-c2ccc(CCC(=O)N3CCN(c4cc(C)ccc4C)CC3)[nH]2)cc1
8 | 1190 nM | 180 nM | Cc1ccc(C)c(N2CCN(C(=O)CCc3nc(-c4ccccc4Br)no3)CC2)c1
9 | 4980 nM | 770 nM | Cc1ccc(C)c(N2CCN(C(=O)CCc3nc(-c4ccc(C(F)(F)F)cc4)no3)CC2)c1
10 | 17400 nM | 2690 nM | COc1ccc(-c2noc(CCCCC(=O)N3CCN(c4cc(C)ccc4C)CC3)n2)cc1
11 | 5160 nM | 800 nM | COc1ccc(-c2noc(CCCC(=O)N3CCN(c4cc(C)ccc4C)CC3)n2)cc1
12 | inactive | 140 nM | COc1ccc(-c2noc(CCC(=O)N3CCN(c4ccc(F)cc4)CC3)n2)cc1
13 | 3030 nM | 470 nM | Cc1ccc(-c2noc(CCC(=O)N3CCN(c4cc(C)ccc4C)CC3)n2)cc1
14 | 2660 nM | 410 nM | Cc1ccc(C)c(N2CCN(C(=O)CCc3nc(-c4ccc(Br)cc4)no3)CC2)c1
15 | inactive | 760 nM | COc1ccc(-c2noc(CCC(=O)N3CCN(c4cccc(OC)c4)CC3)n2)cc1
16 | 1050 nM | 160 nM | COc1ccc(-c2noc(CCC(=O)N3CCN(c4ccccc4C)CC3)n2)cc1
17 | 1540 nM | 240 nM | Cc1ccc(C)c(N2CCN(C(=O)CCc3nc(-c4ccccc4C)no3)CC2)c1
18 | 951 nM | 150 nM | Cc1ccc(C)c(N2CCN(C(=O)CCc3nc(-c4ccccc4Cl)no3)CC2)c1
19 | 4050 nM | 630 nM | COc1ccc(-c2cccc(CCC(=O)N3CCN(c4cc(C)ccc4C)CC3)c2)cc1
20 | inactive | 170 nM | COc1ccc(-c2noc(CCC(=O)N3CCN(c4cccc(F)c4)CC3)n2)cc1
21 | 1660 nM | 260 nM | Cc1ccc(C)c(N2CCN(C(=O)CCc3nc(-c4ccc(Cl)cc4)no3)CC2)c1
22 | 1840 nM | 280 nM | Cc1ccc(C)c(N2CCN(C(=O)CCc3nc(-c4cccc(F)c4)no3)CC2)c1
23 | 1380 nM | 210 nM | COc1ccc(-c2noc(CCC(=O)N3CCN(c4cccc(C)c4C)CC3)n2)cc1
24 | 1630 nM | 250 nM | COc1ccc(-c2noc(CCC(=O)N3CCC(c4cc(C)ccc4C)CC3)n2)cc1
25 | 665 nM | 100 nM | Cc1ccc(C)c(N2CCN(C(=O)CCc3nc(-c4ccc(F)cc4)no3)CC2)c1
26 | 1690 nM | 260 nM | Cc1ccc(C)c(N2CCN(C(=O)CCc3nc(-c4ccccc4C(F)(F)F)no3)CC2)c1

Row | EC50 | Ki | SMILES
27 | 1850 nM | 290 nM | Cc1cccc(-c2noc(CCC(=O)N3CCN(c4cc(C)ccc4C)CC3)n2)c1
28 | 1660 nM | 260 nM | Cc1ccc(C)c(N2CCN(C(=O)CCc3nc(-c4ccc(N(C)C)cc4)no3)CC2)c1
29 | 2280 nM | 350 nM | COc1ccc(-c2noc(CCC(=O)N3CCN(c4cc(C)ccc4C)CC3)n2)cc1
30 | 1070 nM | 170 nM | COc1ccc(-c2noc(CCC(=O)N3CCN(c4ccccc4F)CC3)n2)cc1
31 | 1680 nM | 260 nM | COc1ccc(-c2coc(CCC(=O)N3CCN(c4cc(C)ccc4C)CC3)n2)cc1
32 | 3910 nM | 600 nM | Cc1ccc(C)c(N2CCN(C(=O)CCc3nc(-c4cccc(Cl)c4)no3)CC2)c1
33 | 4910 nM | 760 nM | COc1ccccc1-c1noc(CCC(=O)N2CCN(c3cc(C)ccc3C)CC2)n1
34 | > 30000 nM (inactive) | – | COc1ccc(-c2ccc(CCC(=O)N3CCN(c4cc(C)ccc4C)CC3)o2)cc1
35 | > 30000 nM (inactive) | – | COc1ccc(-c2noc(CCC(=O)N3CCN(c4ccc(C(F)(F)F)cc4)CC3)n2)cc1
36 | 7130 nM | 1100 nM | COc1ccc(-c2noc(CCC(=O)N3CCN(c4cccc(Cl)c4)CC3)n2)cc1
37 | inactive | 20 nM | COc1ccc(-c2noc(CCC(=O)N3CCN(c4ccc(Cl)cc4)CC3)n2)cc1
38 | > 30000 nM (inactive) | – | COc1ccc(-c2noc(CCC(=O)N3CCN(c4ccc(Br)cc4)CC3)n2)cc1
39 | 1430 nM | 220 nM | COc1ccc(-c2noc(CCC(=O)N3CCN(c4ccccc4Br)CC3)n2)cc1
40 | 2340 nM | 360 nM | Cc1ccc(C)c(N2CCN(C(=O)CCc3nc(-c4cccc(Br)c4)no3)CC2)c1
41 | inactive | 190 nM | COc1ccc(-c2noc(CCC(=O)N3CCN(c4ccc(C)cc4)CC3)n2)cc1
42 | > 30000 nM (inactive) | – | COc1ccc(-c2noc(CCC(=O)N3CCN(c4cccc(Br)c4)CC3)n2)cc1
43 | 1450 nM | 220 nM | COc1ccc(-c2cc(CCC(=O)N3CCN(c4cc(C)ccc4C)CC3)on2)cc1
44 | inactive | 110 nM | COc1ccc(-c2noc(CCC(=O)N3CCN(c4ccccc4)CC3)n2)cc1
45 | 1510 nM | 230 nM | Cc1ccc(C)c(N2CCN(C(=O)CCc3nc(-c4ccccc4F)no3)CC2)c1
46 | inactive | 1770 nM | COc1ccc(-c2noc(CC(=O)N3CCN(c4cc(C)ccc4C)CC3)n2)cc1
47 | 621 nM | 100 nM | Cc1ccc(C)c(N2CCN(C(=O)CCc3nc(-c4ccccc4)no3)CC2)c1
48 | 2670 nM | 410 nM | Cc1ccc(C)c(N2CCN(C(=O)CCc3nc(-c4cccc(C(F)(F)F)c4)no3)CC2)c1
49 | > 30000 nM (inactive) | – | COc1ccc(-c2noc(CCC(=O)N3CCN(c4cccc(C(F)(F)F)c4)CC3)n2)cc1
50 | 2000 nM | 310 nM | COc1ccc(-c2noc(CCC(=O)N3CCN(c4ccccc4C(F)(F)F)CC3)n2)cc1
51 | 700 nM | 110 nM | COc1ccc(-c2noc(CCC(=O)N3CCN(c4ccc(OC)cc4)CC3)n2)cc1
